For one molecule, Percent growth inhibition and IC50 results are on record in US20180071354A1, “SELECTIVE BREEDING METHOD OF ANTITUMOR/ANTICANCER CAMELLIA SINENSIS STRAIN, AND TEA PRODUCT OF SUCH STRAIN” (FUJIAN AGRICULTURE AND FORESTRY UNIVERSITY, priority 2015, published 2018).

Assay [1] relates to human prostate cancer cell line PC-3. The assay is described as follows: In vitro antitumor/anticancer testing (CCK-8), PC-3. Format: cell-based. The note with it: 48 h. The method, then:
Each of Tea Product 1 and Conventional Tea Product obtained in section A of this example was used to prepare test tea samples according to the method described below. A proper amount of the respective tea product was added into sterile water to prepare a stock solution with a concentration of 100 mg/mL, followed by using a membrane filter with a pore size of 0.22 μm to conduct vacuum filtration and sterilization. The resulting stock solution was diluted with a respective complete medium shown in Table 3 below to form test tea samples with different concentrations. In other words, the thus obtained test tea samples to be used for treating a respective cancer/tumor cell line shown in Table 3 were prepared using the same complete medium as that for the respective cancer/tumor cell line.
Specifically, each of the aforesaid commercially available agents was subjected to the method described below to prepare comparative test samples. A proper amount of a respective commercially available agent was dissolved in phosphate-buffered saline (PBS) to prepare a stock solution with a concentration of 5 mg/mL, followed by using a membrane filter with a pore size of 0.22 μm to conduct vacuum filtration and sterilization. The resulting stock solution was diluted with a respective complete medium shown in Table 3 below to form comparative test samples with different concentrations. To be specific, the comparative test samples prepared from the respective commercially available agent have the concentrations shown in Table 2 below. The thus obtained comparative test samples to be used for treating a respective cancer/tumor cell line shown in Table 3 were prepared using the same complete medium as that for the respective cancer/tumor cell line.
The following cancer/tumor cells purchased from Chinese Academy of Sciences, Shanghai Institutes for Biological Sciences, Institute of Biochemistry and Cell Biology were used for in vitro antitumor/anticancer testing: human liver cancer cell line HepG2, human ovarian cancer cell line SK-OV-3, human cervical cancer cell line Hela, human lung cancer cell line A549, human glioblastoma cell line U-87MG, human mammary gland/duct cancer cell line BT-474, human prostate cancer cell line PC-3, human leukemia cell line HL-60, human gastric cancer cell line SMMC-7721, human colon cancer cell line HCT-116, human squamous cell carcinoma cell line A431, human leukemia cell line K562, human pancreatic cancer cell line PANC-1, and human gastric cancer cell line BGC-823.
The cultivation of each cancer/tumor cell line is described as follows. The cancer/tumor cancer cells were cultivated in the respective complete medium supplemented with 100 μg/mL penicillin and 100 μg/mL streptomycin in an incubator (37° C., 100% relative humidity, 5% CO2). When adherent cancer/tumor cells reached 80% confluence during the log-phase, cell detachment was conducted using 0.6 mL of 0.3% trypsin. Afterwards, a cell suspension having a cell density of 1.0×10^4 cells/mL was prepared. 100 μL of the cell suspension (i.e. 1000 cancer/tumor cells) was added into wells of a 96-well plate (Cat. No. 3599, Corning Costar), followed by cultivation in an incubator (37° C., 100% relative humidity, 5% CO2) for 24 hours.
As experimental groups, the tumor/cancer cells of each cell line were treated with the test tea samples prepared from one or more of the tea products and the comparative test samples prepared from one or more of the commercially available agents as obtained in section B of this example (for more detailed information about the tea product(s) and the commercially available product (s) used to treat each cell line, please see Table 4 below). To be specific, 6 to 10 test tea samples prepared from the same tea product and having different concentrations, as well as 6 to 10 comparative test samples prepared from the same commercially available agent and having different concentrations, were utilized to treat the tumor/cancer cells of each cell line. […]

For assay [2], the system named is human leukemia cell line HL-60. The assay is described as follows: In vitro antitumor/anticancer testing (CCK-8), HL-60. The class given is cell-based. The note with it: 48 h. The method, then: Each of Tea Product 1 and Conventional Tea Product obtained in section A of this example was used to prepare test tea samples according to the method described below. A proper amount of the respective tea product was added into sterile water to prepare a stock solution with a concentration of 100 mg/mL, followed by using a membrane filter with a pore size of 0.22 μm to conduct vacuum filtration and sterilization. The resulting stock solution was diluted with a respective complete medium shown in Table 3 below to form test tea samples with different concentrations. In other words, the thus obtained test tea samples to be used for treating a respective cancer/tumor cell line shown in Table 3 were prepared using the same complete medium as that for the respective cancer/tumor cell line. […] Specifically, each of the aforesaid commercially available agents was subjected to the method described below to prepare comparative test samples. A proper amount of a respective commercially available agent was dissolved in phosphate-buffered saline (PBS) to prepare a stock solution with a concentration of 5 mg/mL, followed by using a membrane filter with a pore size of 0.22 μm to conduct vacuum filtration and sterilization. The resulting stock solution was diluted with a respective complete medium shown in Table 3 below to form comparative test samples with different concentrations. To be specific, the comparative test samples prepared from the respective commercially available agent have the concentrations shown in Table 2 below. The thus obtained comparative test samples to be used for treating a respective cancer/tumor cell line shown in Table 3 were prepared using the same complete medium as that for the respective cancer/tumor cell line. […] The cultivation of each cancer/tumor cell line is described as follows. […] Afterwards, a cell suspension having a cell density of 1.0×10^4 cells/mL was prepared. […] As experimental groups, the tumor/cancer cells of each cell line were treated with the test tea samples prepared from one or more of the tea products and the comparative test samples prepared from one or more of the commercially available agents as obtained in section B of this example (for more detailed information about the tea product(s) and the commercially available product (s) used to treat each cell line, please see Table 4 below). To be specific, 6 to 10 test tea samples prepared from the same tea product and having different concentrations, as well as 6 to 10 comparative test samples prepared from the same commercially available agent and having different concentrations, were utilized to treat the tumor/cancer cells of each cell line. For each experimental group, 6 repetitions of tumor/cancer treatment were performed. For the control group, 100 μL of PBS was added to a well containing the medium and the cancer/tumor cells of the respective cell line. For the blank group, 100 μL of PBS was added to a well containing a complete medium the same as that used for cultivation of the cancer/tumor cells of the respective cell line. After the treatment described above, cultivation was conducted in an incubator (37° C., 100% relative humidity, 5% CO2) for 48 hours. Subsequently, the liquid containing the medium and the sample in the well was removed, and a respective complete medium (shown in Table 3 above) containing 10% CCK-8 (Cell Counting Kit-8)(Dojindo Molecular Technologies, Inc., Cat. No. CK04-13) was added. Cultivation was performed in an incubator (37° C.) for 2 to 4 hours, followed by gently shaking.

`O=C(O[C@@H]1Cc2c(O)cc(O)cc2O[C@@H]1c1cc(O)c(O)c(O)c1)c1cc(O)c(O)c(O)c1` [EGCG monomer, epigallocatechin gallate]: the Percent growth inhibition in assay [1] (2.5 μg/mL) is given as 16.69%; in assay [1] (7 μg/mL), 19.10%; in assay [1] (10 μg/mL), 19.64%; in assay [1] (20 μg/mL) it was 26.03%; in assay [1] (40 μg/mL) it was 40.11%; in assay [1] (80 μg/mL), 74.43%. For the same molecule, the Percent growth inhibition in assay [1] (160 μg/mL) turned out to be 86.71%; in assay [1] (320 μg/mL), 96.31%; in assay [1] (640 μg/mL), 92.53%; in assay [2] (2.5 μg/mL) it was 5.10%; in assay [2] (5 μg/mL), 12.43%; in assay [2] (10 μg/mL) it was 16.22%. The Percent growth inhibition in assay [2] (20 μg/mL) was 27.14%; in assay [2] (40 μg/mL) it was 44.21%; in assay [2] (80 μg/mL) it was 76.96%; in assay [2] (160 μg/mL), 73.03%; in assay [2] (320 μg/mL) it was 83.90%; in assay [2] (640 μg/mL) it was 91.13%. In addition, the results for the IC50 entry in assay [1] (PC-3) and in assay [2] (HL-60) were “IC50 (μg/mL) = 39.51” and “IC50 (μg/mL) = 44.96”, respectively.
